# Marks after values point to notes of the source that are not given here.
# System: patients with relapsed/refractory immune thrombocytopenia
# Test: Phase 1/2 study (NCT03395210) Part A, safety;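 note: adverse events graded by NCI CTCAE version 4.0, with worsening of pre-existing conditions counted as adverse events, analysed in the Safety Population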
# [1] = 45 patients who initiated 400 bid
compound,measurement,setting,value
"CC(C)(C=C(C#N)C(=O)N1CCC[C@@H](n2nc(-c3ccc(Oc4ccccc4)cc3F)c3c(N)ncnc32)C1)N1CCN(C2COC2)CC1 [rilzabrutinib, (R)-2-[3-[4-amino-3-(2-fluoro-4-phenoxy-phenyl)pyrazolo[3,4-d]pyrimidin-1-yl]piperidine-1-carbonyl]-4-methyl-4-[4-(oxetan-3-yl)piperazin-1-yl]pent-2-enenitrile]","patients with ≥1 treatment-related, treatment-emergent adverse event",45 patients who initiated 400 mg bid,84%
same,treatment-related any-grade TEAE: diarrhea,[1],36%
same,treatment-related any-grade TEAE: fatigue,[1],9%
same,treatment-related any-grade TEAE: nausea,[1],31%
same,"patients with ≥1 treatment-related, treatment-emergent adverse event",60 patients who initiated rilzabrutinib at all doses,52%
same,"All related TEAEs, Treatment-Related TEAEs, Grade 1",N = 45 initiated 400 mg bid,23 (51) number of patients (percent)
same,"All related TEAEs, Treatment-Related TEAEs, Grade 2",N = 45 initiated 400 mg bid,15 (33) number of patients (percent)
same,"Diarrhea, Treatment-Related TEAEs, Grade 1",N = 45 initiated 400 mg bid,13 (29) number of patients (percent)
same,"Diarrhea, Treatment-Related TEAEs, Grade 2",N = 45 initiated 400 mg bid,3 (7) number of patients (percent)
same,"Fatigue, Treatment-Related TEAEs, Grade 1",N = 45 initiated 400 mg bid,3 (7) number of patients (percent)
same,"Fatigue, Treatment-Related TEAEs, Grade 2",N = 45 initiated 400 mg bid,1 (2) number of patients (percent)
same,"Nausea, Treatment-Related TEAEs, Grade 1",N = 45 initiated 400 mg bid,12 (27) number of patients (percent)
same,"Nausea, Treatment-Related TEAEs, Grade 2",N = 45 initiated 400 mg bid,2 (4) number of patients (percent)
same,"Vomiting, Treatment-Related TEAEs, Grade 1",N = 45 initiated 400 mg bid,2 (4) number of patients (percent)
same,"Vomiting, Treatment-Related TEAEs, Grade 2",N = 45 initiated 400 mg bid,1 (2) number of patients (percent)
same,"Abdominal discomfort, TEAEs Due to Any Cause, Any grade","Safety Population, N = 60",1 (2) number of patients (percent)
same,"Abdominal discomfort, TEAEs Due to Any Cause, Grade 1","Safety Population, N = 60",1 (2) number of patients (percent)
same,"Abdominal discomfort, Treatment-Related TEAEs, Any grade","Safety Population, N = 60",1 (2) number of patients (percent)
same,"Abdominal discomfort, Treatment-Related TEAEs, Grade 1","Safety Population, N = 60",1 (2) number of patients (percent)
same,"Abdominal distension, TEAEs Due to Any Cause, Any grade","Safety Population, N = 60",6 (10) number of patients (percent)
same,"Abdominal distension, TEAEs Due to Any Cause, Grade 1","Safety Population, N = 60",6 (10) number of patients (percent)
same,"Abdominal distension, Treatment-Related TEAEs, Any grade","Safety Population, N = 60",4 (7) number of patients (percent)
same,"Abdominal distension, Treatment-Related TEAEs, Grade 1","Safety Population, N = 60",4 (7) number of patients (percent)
same,"Abdominal pain, TEAEs Due to Any Cause, Any grade","Safety Population, N = 60",3 (5) number of patients (percent)
same,"Abdominal pain, TEAEs Due to Any Cause, Grade 1","Safety Population, N = 60",1 (2) number of patients (percent)
same,"Abdominal pain, TEAEs Due to Any Cause, Grade 2","Safety Population, N = 60",2 (3) number of patients (percent)
same,"Abdominal pain, Treatment-Related TEAEs, Any grade","Safety Population, N = 60",2 (3) number of patients (percent)
same,"Abdominal pain, Treatment-Related TEAEs, Grade 2","Safety Population, N = 60",2 (3) number of patients (percent)
same,"Abnormal dreams, TEAEs Due to Any Cause, Any grade","Safety Population, N = 60",1 (2) number of patients (percent)
same,"Abnormal dreams, TEAEs Due to Any Cause, Grade 1","Safety Population, N = 60",1 (2) number of patients (percent)
same,"Abnormal dreams, Treatment-Related TEAEs, Any grade","Safety Population, N = 60",1 (2) number of patients (percent)
same,"Abnormal dreams, Treatment-Related TEAEs, Grade 1","Safety Population, N = 60",1 (2) number of patients (percent)
same,"Akathisia, TEAEs Due to Any Cause, Any grade","Safety Population, N = 60",1 (2) number of patients (percent)
same,"Akathisia, TEAEs Due to Any Cause, Grade 1","Safety Population, N = 60",1 (2) number of patients (percent)
same,"Akathisia, Treatment-Related TEAEs, Any grade","Safety Population, N = 60",1 (2) number of patients (percent)
same,"Akathisia, Treatment-Related TEAEs, Grade 1","Safety Population, N = 60",1 (2) number of patients (percent)
same,"Alopecia, TEAEs Due to Any Cause, Any grade","Safety Population, N = 60",2 (3) number of patients (percent)
same,"Alopecia, TEAEs Due to Any Cause, Grade 1","Safety Population, N = 60",2 (3) number of patients (percent)
same,"Anemia, TEAEs Due to Any Cause, Any grade","Safety Population, N = 60",4 (7) number of patients (percent)
same,"Anemia, TEAEs Due to Any Cause, Grade 2","Safety Population, N = 60",2 (3) number of patients (percent)
same,"Anemia, TEAEs Due to Any Cause, Grade 3/4","Safety Population, N = 60",2 (3) number of patients (percent)
same,"Any TEAE, TEAEs Due to Any Cause, Any grade","Safety Population, N = 60",48 (80) number of patients (percent)
same,"Any TEAE, TEAEs Due to Any Cause, Grade 1","Safety Population, N = 60",43 (72) number of patients (percent)
same,"Any TEAE, TEAEs Due to Any Cause, Grade 2","Safety Population, N = 60",30 (50) number of patients (percent)
same,"Any TEAE, TEAEs Due to Any Cause, Grade 3/4","Safety Population, N = 60",8 (13)^† number of patients (percent)
same,"Any TEAE, Treatment-Related TEAEs, Any grade","Safety Population, N = 60",31 (52) number of patients (percent)
same,"Any TEAE, Treatment-Related TEAEs, Grade 1","Safety Population, N = 60",27 (45) number of patients (percent)
same,"Any TEAE, Treatment-Related TEAEs, Grade 2","Safety Population, N = 60",15 (25) number of patients (percent)
same,"Arthralgia, TEAEs Due to Any Cause, Any grade","Safety Population, N = 60",5 (8) number of patients (percent)
same,"Arthralgia, TEAEs Due to Any Cause, Grade 1","Safety Population, N = 60",3 (5) number of patients (percent)
same,"Arthralgia, TEAEs Due to Any Cause, Grade 2","Safety Population, N = 60",2 (3) number of patients (percent)
same,"Arthropod bite, TEAEs Due to Any Cause, Any grade","Safety Population, N = 60",3 (5) number of patients (percent)
same,"Arthropod bite, TEAEs Due to Any Cause, Grade 1","Safety Population, N = 60",3 (5) number of patients (percent)
same,"Back pain, TEAEs Due to Any Cause, Any grade","Safety Population, N = 60",8 (13) number of patients (percent)
same,"Back pain, TEAEs Due to Any Cause, Grade 1","Safety Population, N = 60",7 (12) number of patients (percent)

# Source: patent US20250255874A1, “Methods for Treating Immune Thrombocytopenia By Administering (R)-2-[3-[4-Amino-3-(2-Fluoro-4-Phenoxy-Phenyl)Pyrazolo[3,4-D]Pyrimidin-1-YL]Piperidine-1-Carbonyl]-4-Methyl-4-[4-(Oxetan-3-YL)Piperazin-1-YL]Pent-2-Enentrile” (Principia Biopharma Inc., priority 2022, published 2025)
